# Reference: patent publication US20040082591A1, “Therapeutic heterocyclic compounds” (priority 2001, published 2004)
# System: 5-HT1B receptors and 5-HT1D receptors
# Test: Radioligand competition binding with [3H]-GR125743 on membranes of transfected CHO cells
# Settings: not given
# Source text: Other assays that may be used to measure for example affinity of compounds of the present invention for 5HT1B and 5HT1D receptors are described in J. Med. Chem 41:1218-1235, 1228 (1998) and J. Med. Chem 42:4981-5001, (1999) and incorporated by reference herein. These assays may be used with some modifications: Frozen membrane preparations of a stably transfected chinese hamster ovary (CHO) cell line expressing 5-HT1B receptors and 5-HT1D receptors are thawed rapidly, briefly vortexed, and diluted in assay buffer (AB) containing 50 mM Tris-HCl, 4 mM MgCl2, 4 mM CaCl2, 1 mM EDTA, and adjusted to pH 7.4 with NaOH. Final protein concentrations are—0.185 mg/ml for 5-HT1B, and 0.4 mg/ml for 5-HT1D membranes. Test compounds are evaluated in competition assays using [^3H]-GR125743 (Amersham). The ligand concentration in both assays was 0.27 nM. […] The 5-HT1B and 5-HT1D assays are performed simultaneously on one 96-well assay plate, one drug/compound per plate. Ten serial dilutions (1 uM to 4 pM, final concentration) of compound are prepared in DMSO from 10 mM stock solutions. Incubation mixtures are prepared in quadruplicate in 96-deep well assay plates (Matrix 1 ml). […] The plates are then counted on a Packard TopCount to determine CPM's per well. Ki values are determined for each test compound utilizing the graphic and analytical software package, GraphPad Prism. […]
row,Compound,Kd [nM]
1,COc1ccc(NC(=O)c2ccc(-c3ccncc3)c(C)c2)cc1N1CCN(C)CC1 [[^3H]-GR125743],0.15 to 0.25

# System: not given
# Test: not given
# Settings: not given
row,melting point,Compound
1,215 to 216 °C,"CN1CCN(c2cccc3c2OC(C(=O)Nc2ccc(N4CCOCC4)cc2)CC3)CC1 (racemic) [Example 75, Racemic-8-(4-Methyl-piperazin-1-yl)-chroman-2-carboxylic acid (4-morpholin-4-yl-phenyl)-amide]"
2,215 to 216 °C,"CN1CCN(c2cccc3c2OC(C(=O)Nc2ccc(N4CCOCC4)cc2)CC3=O)CC1 (racemic) [Example 78, racemic-8-(4-methyl-piperazin-1-yl)-4-oxo-chroman-2-carboxylic acid (4-morpholin-4-yl-phenyl)-amide]"
3,216 °C (dec.),"CN1CCN(c2cccc3c2OC(C(=O)Nc2ccc(N4CCOCC4)cc2)CC3=O)CC1 (single isomer, unassigned) [Example 79, 8-(4-Methyl-piperazin-1-yl)-4-oxo-chroman-2-carboxylic Acid (4-morpholin-4-yl-phenyl)-amide]"
4,215 °C (dec.),"CN1CCN(c2cccc3c2OC(C(=O)Nc2ccc(N4CCOCC4)cc2)CC3=O)CC1 (single isomer, unassigned) [Example 80, 8-(4-Methyl-piperazin-1-yl)-4-oxo-chroman-2-carboxylic Acid (4-morpholin-4-yl-phenyl)-amide]"
5,206 to 207 °C,"CN1CCN(c2cccc3c2OC(C(=O)Nc2ccc(N4CCOCC4)cc2)CC3)CC1 (single isomer, unassigned; (+)) [Example 76, (+)-8-(4-Methyl-piperazin-1-yl)-chroman-2-carboxylic Acid (4-morpholin-4-yl-phenyl)-amide]"
6,205.5 to 207 °C,"CN1CCN(c2cccc3c2OC(C(=O)Nc2ccc(N4CCOCC4)cc2)CC3)CC1 (single isomer, unassigned; (-)) [Example 77, (−)-8-(4-Methyl-piperazin-1-yl)-chroman-2-carboxylic Acid (4-morpholin-4-yl-phenyl)-amide]"
7,217 to 218 °C (dec.),"CN1CCN(c2cccc3c(=O)cc(C(=O)Nc4ccc(N5CCOCC5)cc4)oc23)CC1 [Example 1, 8-(4-methyl-1-piperazinyl)-N-[4-(4-morpholinyl)phenyl]-4-oxo-4H-chromene-2-carboxamide]"
8,158.1 to 158.8 °C,"CN1CCN(c2cccc3c(=O)cc(-c4nc5ccc(N6CCOCC6)cc5o4)oc23)CC1 [Example 21, 8-(4-Methyl-piperazin-1-yl)-2-(6-morpholin-4-yl-benzooxazol-2-yl)-chromen-4-one]"
9,248.4 to 249.6 °C,"CN1CCN(c2cccc3c(=O)cc(C(=O)Nc4ccc(N5CCOCC5)cc4O)oc23)CC1 [Example 22, 8-(4-Methyl-piperazin-1-yl)-4-oxo-4H-chromene-2-carboxylic Acid (2-hydroxy-4-morpholin-4-yl-phenyl)-amide]"
10,234 to 236 °C,"COc1cc(N2CCN(C)CC2)c2oc(C(=O)Nc3ccc(N4CCOCC4)cc3)cc(=O)c2c1 [Example 31, 6-Methoxy-8-(4-methyl-piperazin-1-yl)-4-oxo-4H-chromene-2-carboxylic acid (4-morpholin-4-yl-phenyl)-amide]"
11,195 to 197 °C,"COc1cc(N2CCN(C)CC2)c2oc(C(=O)Nc3ccc(N4CCN(C(=O)CCO)CC4)cc3)cc(=O)c2c1 [Example 68, 6-Methoxy-8-(4-methyl-piperazin-1-yl)-4-oxo-4H-chromene-2-carboxylic Acid {4-[4-(3-hydroxy-propanoyl)-piperazin-1-yl]-phenyl}-amide]"
12,233 to 234 °C,CCS(=O)(=O)N1CCN(c2ccc(NC(=O)c3cc(=O)c4cc(F)cc(N5CCN(C)CC5)c4o3)cc2)CC1 [Example 71]
13,195 to 199 °C,"CN1CCN(c2cc(F)cc3c(=O)cc(C(=O)Nc4ccc(N5CCN(C(=O)CCO)CC5)cc4)oc23)CC1 [Example 73, 6-Fluoro-8-(4-methyl-piperazin-1-yl)-4-oxo-4H-chromene-2-carboxylic Acid {4-[4-(3-hydroxy-propanoyl)-piperazin-1-yl]-phenyl}-amide]"
14,236 to 238 °C,"CCNC(=O)N1CCN(c2ccc(NC(=O)c3cc(=O)c4cc(F)cc(N5CCN(C)CC5)c4o3)cc2)CC1 [Example 81, 4-[4-({1-[6-Fluoro-8-(4-methyl-piperazin-1-yl)-4-oxo-4H-chromen-2-yl]-methanoyl}-amino)-phenyl]-piperazine-1-carboxylic Acid Ethylamide]"

# System: Hartley guinea pigs
# Test: Learned helplessness test
# Type: in vivo, guinea pig
# Settings: antidepressant/antianxiety activity
# Source text: The utility of the compounds for example to treat depression may be shown via a learned helplessness test in guinea pigs, which is used extensively as correlative to antidepressant activity in humans. The learned helplessness test may be carried out as follows: Seventy male Hartley guinea pigs, each weighing about 350-425 gm are fed ad lib, and are housed under a 12-hour light/dark cycle. The procedure consists of two phases: The induction phase and the avoidance training phase. In the induction phase, subjects are placed into standard shuttle cages (20 L×16 W×21 centimeters H) which are fitted with a grid floor. Electrical stimulation (1.25 mA, 10 sec duration) is delivered to the floor of the cage every 90-sec during 1 hour daily sessions. Subjects have no opportunity to escape or to avoid shocks. Induction is conducted for 2 consecutive days.
# In avoidance training, testing is also conducted in the shuttle cages, except that the subjects are not returned to the same chamber in which induction had occurred. Additionally, all cages are fitted with a partition with an arch in the center of the cage, through which animals can pass between the left and right halves of the cage. The procedure employed is a standard shuttle avoidance procedure in which a compound, conditioned stimulus (a 10-sec presentation of a tone and turning on of a lamp on the side of the cage that the guinea pig was occupying) serves to indicate presentation of electrical current to the floor of the cage. Shock is presented for a 5 sec period, 5 sec after initiation of the conditioned stimulus. Entry into the opposite side of the shuttle cage via the arched partition prior to shock onset results in the end of the trial (avoidance response). If shock is delivered, entry into the opposite side of the cage results in termination of the shock and CS (escape). Reversal of learned helplessness in the induction subjects correlates to antidepressant activity of the test compound.
# Avoidance training, 45-min in duration, is conducted on 2 consecutive days, beginning 48 hr after the final induction session. Seventy subjects are assigned to 1 of 6 groups of 11-12 animals. The groups are as follows:
# Groups 2-6 are given induction and avoidance training sessions. Injections are administered immediately following induction sessions and 1 hour prior to avoidance training sessions. A second injection is administered 7-8 hours following the first injection, for a total of 9 injections administered over 5 days. No injections are administered following the final avoidance training session.
# Compounds of the present invention may be administered in a volume of 1 mL/kg bwt. Imipramine is dissolved in DI water. The compounds are dissolved in DI water, to which was added a few drops of lactic acid (pH 5.5). […]
row,Compound,activity in the learned helplessness assay
1,"COc1cc(N2CCN(C)CC2)c2oc(C(=O)Nc3ccc(N4CCOCC4)cc3)cc(=O)c2c1 [Example 31, 6-Methoxy-8-(4-methyl-piperazin-1-yl)-4-oxo-4H-chromene-2-carboxylic acid (4-morpholin-4-yl-phenyl)-amide]",demonstrate activity
2,"CCC(=O)N1CCN(c2ccc(NC(=O)c3cc(=O)c4cc(OC)cc(N5CCN(C)CC5)c4o3)cc2)CC1 [Example 44, 6-Methoxy-8-(4-methyl-piperazin-1-yl)-4-oxo-4H-chromene-2-carboxylic Acid [4-(4-propionyl-piperazin-1-yl)-phenyl]-amide]",demonstrate activity
3,CCS(=O)(=O)N1CCN(c2ccc(NC(=O)c3cc(=O)c4cc(F)cc(N5CCN(C)CC5)c4o3)cc2)CC1 [Example 71],demonstrate activity
4,"CCC(=O)N1CCN(c2ccc(NC(=O)c3cc(=O)c4cc(F)cc(N5CCN(C)CC5)c4o3)cc2)CC1 [Example 72, 6-flouro-8-(4-methyl-piperazin-1-yl)-4-oxo-4H-chromene-2-carboxylic acid [4-(4-propionyl-piperazin-1-yl)-phenyl]-amide]",demonstrate activity

# Molecular target: 5-HT1B and 5HT1D receptors
# Test: not given
# Settings: saturation studies, guinea pig cortex; 'may result in a measurement of'; read-out: Kd value of [3H]GR125743; cited from earlier work
row,Compound,Kd [nM]
1,COc1ccc(NC(=O)c2ccc(-c3ccncc3)c(C)c2)cc1N1CCN(C)CC1 [[^3H]-GR125743],0.046 ± 0.004
